# Earlier results as cited in PMC9851200, “Multiparameter phenotypic screening for endogenous TFEB and TFE3 translocation identifies novel chemical series modulating lysosome function” (Autophagy, 2022).
# What was measured:
# Design in all cases: method as in original PKIS2 published data
# [1] = target: kinases (KINOMEscan panel) (Homo sapiens, UniProt O75914); conditions: Published KINOMEscan; ref original PKIS2 published data; cited from earlier work
# [2] = target: kinases (KINOMEscan panel) (Homo sapiens, UniProt P53350); conditions: PLK1; Published KINOMEscan; ref original PKIS2 published data; cited from earlier work
# kinases (KINOMEscan panel) (Homo sapiens, UniProt P53350), sequence (P53350 whole entry): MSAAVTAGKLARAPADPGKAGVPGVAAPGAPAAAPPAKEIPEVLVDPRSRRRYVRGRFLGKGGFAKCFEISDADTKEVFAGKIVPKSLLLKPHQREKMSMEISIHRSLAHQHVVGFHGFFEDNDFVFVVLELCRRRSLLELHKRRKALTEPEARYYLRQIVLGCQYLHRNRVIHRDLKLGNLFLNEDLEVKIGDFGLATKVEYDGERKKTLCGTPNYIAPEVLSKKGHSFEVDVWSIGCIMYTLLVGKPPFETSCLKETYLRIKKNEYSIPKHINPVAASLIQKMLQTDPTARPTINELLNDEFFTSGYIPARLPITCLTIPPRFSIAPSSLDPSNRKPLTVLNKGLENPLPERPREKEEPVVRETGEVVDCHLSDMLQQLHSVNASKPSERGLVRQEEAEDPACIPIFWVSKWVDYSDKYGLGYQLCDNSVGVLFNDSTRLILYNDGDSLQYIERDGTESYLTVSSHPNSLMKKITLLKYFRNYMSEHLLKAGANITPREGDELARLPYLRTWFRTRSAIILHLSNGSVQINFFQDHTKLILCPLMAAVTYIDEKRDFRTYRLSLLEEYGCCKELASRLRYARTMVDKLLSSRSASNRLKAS
# [3] = target: T1, kinases (KINOMEscan panel) (Homo sapiens, UniProt P30530); conditions: AXL; Published KINOMEscan; ref original PKIS2 published data; cited from earlier work
# T1 sequence (P30530 26-894): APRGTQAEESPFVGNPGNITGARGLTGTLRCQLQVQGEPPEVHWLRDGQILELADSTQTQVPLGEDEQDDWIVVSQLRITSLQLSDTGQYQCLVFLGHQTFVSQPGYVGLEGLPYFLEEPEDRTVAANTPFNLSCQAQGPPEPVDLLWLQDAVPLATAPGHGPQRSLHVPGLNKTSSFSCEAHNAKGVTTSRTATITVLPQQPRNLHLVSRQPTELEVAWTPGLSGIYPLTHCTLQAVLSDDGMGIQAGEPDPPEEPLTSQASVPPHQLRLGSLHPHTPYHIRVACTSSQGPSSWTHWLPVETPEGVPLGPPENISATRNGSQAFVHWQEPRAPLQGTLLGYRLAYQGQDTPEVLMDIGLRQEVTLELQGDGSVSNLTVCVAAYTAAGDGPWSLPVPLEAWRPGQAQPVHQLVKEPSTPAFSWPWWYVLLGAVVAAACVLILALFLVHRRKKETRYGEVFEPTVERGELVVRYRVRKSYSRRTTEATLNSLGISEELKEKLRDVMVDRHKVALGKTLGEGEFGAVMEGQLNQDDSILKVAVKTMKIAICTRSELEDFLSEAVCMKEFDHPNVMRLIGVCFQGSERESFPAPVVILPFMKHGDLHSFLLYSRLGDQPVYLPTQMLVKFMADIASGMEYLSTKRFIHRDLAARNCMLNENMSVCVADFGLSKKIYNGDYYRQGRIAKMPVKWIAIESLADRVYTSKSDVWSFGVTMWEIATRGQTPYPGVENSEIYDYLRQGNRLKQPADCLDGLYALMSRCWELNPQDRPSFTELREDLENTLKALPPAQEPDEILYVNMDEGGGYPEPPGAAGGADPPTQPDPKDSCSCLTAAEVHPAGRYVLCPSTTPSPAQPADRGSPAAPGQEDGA
# [4] = target: T2, kinases (KINOMEscan panel) (Homo sapiens, UniProt P57078); conditions: RIPK4; Published KINOMEscan; ref original PKIS2 published data; cited from earlier work
# T2 sequence (P57078 1-832): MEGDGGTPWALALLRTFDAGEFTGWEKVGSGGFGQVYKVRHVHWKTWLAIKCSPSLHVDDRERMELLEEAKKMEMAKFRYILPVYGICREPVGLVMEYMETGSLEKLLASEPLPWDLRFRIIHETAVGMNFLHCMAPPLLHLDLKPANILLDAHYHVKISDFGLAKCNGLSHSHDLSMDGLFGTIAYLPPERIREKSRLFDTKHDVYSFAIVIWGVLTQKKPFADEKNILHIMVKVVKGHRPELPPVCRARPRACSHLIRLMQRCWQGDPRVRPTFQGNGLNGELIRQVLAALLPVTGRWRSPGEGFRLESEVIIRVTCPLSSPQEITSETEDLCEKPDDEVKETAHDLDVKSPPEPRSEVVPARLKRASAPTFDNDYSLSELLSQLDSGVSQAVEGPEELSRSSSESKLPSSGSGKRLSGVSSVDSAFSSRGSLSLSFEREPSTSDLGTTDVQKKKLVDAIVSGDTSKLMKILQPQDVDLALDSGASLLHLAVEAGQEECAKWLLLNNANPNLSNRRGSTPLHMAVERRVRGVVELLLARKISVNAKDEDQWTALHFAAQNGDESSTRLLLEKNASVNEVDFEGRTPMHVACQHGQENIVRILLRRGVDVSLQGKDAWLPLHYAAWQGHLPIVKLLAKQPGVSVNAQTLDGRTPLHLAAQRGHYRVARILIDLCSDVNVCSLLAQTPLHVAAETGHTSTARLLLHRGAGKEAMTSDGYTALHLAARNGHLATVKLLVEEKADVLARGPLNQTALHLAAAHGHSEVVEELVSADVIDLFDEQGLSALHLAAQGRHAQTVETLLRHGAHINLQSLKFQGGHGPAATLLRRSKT
# [5] = target: T3, kinases (KINOMEscan panel) (Homo sapiens, UniProt Q9NWZ3); conditions: IRAK4; Published KINOMEscan; ref original PKIS2 published data; cited from earlier work
# T3 sequence (Q9NWZ3 1-460): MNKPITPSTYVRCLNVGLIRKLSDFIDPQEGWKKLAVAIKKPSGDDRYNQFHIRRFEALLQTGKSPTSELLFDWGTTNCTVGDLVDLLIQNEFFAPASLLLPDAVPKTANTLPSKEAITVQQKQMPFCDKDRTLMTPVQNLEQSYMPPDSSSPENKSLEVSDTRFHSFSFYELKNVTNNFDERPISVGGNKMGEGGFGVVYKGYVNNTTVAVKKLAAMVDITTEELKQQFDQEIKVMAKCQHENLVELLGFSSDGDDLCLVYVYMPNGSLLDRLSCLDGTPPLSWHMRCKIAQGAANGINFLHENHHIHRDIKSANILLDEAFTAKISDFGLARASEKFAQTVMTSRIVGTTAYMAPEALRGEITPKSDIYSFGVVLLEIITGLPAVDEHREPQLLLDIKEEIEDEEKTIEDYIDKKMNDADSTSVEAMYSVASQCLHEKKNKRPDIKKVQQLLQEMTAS
# [6] = target: kinases (KINOMEscan panel) (Homo sapiens, UniProt P35590); conditions: TIE1; Published KINOMEscan; ref original PKIS2 published data; cited from earlier work
# kinases (KINOMEscan panel) (Homo sapiens, UniProt P35590), sequence (P35590 22-1138): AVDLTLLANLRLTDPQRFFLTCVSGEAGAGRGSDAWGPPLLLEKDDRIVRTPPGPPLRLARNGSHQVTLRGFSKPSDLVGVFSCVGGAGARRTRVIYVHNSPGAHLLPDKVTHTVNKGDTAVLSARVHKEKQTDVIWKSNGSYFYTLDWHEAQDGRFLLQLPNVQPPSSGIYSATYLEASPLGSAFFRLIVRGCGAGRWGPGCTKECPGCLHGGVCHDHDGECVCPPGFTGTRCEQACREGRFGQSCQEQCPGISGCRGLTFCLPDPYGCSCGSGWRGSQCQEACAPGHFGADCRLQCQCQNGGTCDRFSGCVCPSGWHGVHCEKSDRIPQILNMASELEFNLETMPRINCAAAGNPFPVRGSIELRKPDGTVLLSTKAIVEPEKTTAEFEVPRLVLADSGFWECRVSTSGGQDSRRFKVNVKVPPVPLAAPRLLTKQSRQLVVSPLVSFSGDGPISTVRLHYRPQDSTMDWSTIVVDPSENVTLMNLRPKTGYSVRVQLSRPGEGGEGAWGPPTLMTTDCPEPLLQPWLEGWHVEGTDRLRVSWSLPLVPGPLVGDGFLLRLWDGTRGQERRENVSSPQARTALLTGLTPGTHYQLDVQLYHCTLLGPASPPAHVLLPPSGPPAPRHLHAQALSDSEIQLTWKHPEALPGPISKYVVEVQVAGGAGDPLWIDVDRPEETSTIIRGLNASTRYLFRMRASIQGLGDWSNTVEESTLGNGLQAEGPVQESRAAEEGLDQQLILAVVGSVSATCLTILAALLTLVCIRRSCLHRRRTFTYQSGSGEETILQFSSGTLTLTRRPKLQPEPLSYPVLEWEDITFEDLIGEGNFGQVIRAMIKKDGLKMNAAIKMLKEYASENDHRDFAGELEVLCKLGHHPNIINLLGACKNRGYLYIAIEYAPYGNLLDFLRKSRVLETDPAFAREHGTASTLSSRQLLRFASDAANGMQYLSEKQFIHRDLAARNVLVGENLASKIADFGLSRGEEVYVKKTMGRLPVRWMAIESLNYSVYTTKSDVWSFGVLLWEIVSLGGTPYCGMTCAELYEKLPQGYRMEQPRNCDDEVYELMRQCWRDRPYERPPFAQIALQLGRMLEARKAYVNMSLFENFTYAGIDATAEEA
# [7] = target: kinases (KINOMEscan panel) (Homo sapiens, UniProt P06239); conditions: LCK; Published KINOMEscan; ref original PKIS2 published data; cited from earlier work
# kinases (KINOMEscan panel) (Homo sapiens, UniProt P06239), sequence (P06239 whole entry): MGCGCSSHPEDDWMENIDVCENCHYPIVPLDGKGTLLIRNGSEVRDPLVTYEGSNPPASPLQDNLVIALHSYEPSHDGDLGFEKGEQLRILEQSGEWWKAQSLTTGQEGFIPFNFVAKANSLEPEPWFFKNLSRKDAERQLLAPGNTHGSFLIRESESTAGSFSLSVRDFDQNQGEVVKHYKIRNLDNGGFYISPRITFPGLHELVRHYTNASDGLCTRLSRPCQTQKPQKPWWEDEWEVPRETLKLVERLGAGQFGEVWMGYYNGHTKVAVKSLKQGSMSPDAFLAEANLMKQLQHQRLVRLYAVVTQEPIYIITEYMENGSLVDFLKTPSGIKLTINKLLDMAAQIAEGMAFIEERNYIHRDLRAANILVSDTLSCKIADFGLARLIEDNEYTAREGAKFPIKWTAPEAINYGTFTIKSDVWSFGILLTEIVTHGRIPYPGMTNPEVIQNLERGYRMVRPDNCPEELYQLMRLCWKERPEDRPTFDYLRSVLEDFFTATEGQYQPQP
# [8] = target: kinases (KINOMEscan panel) (Homo sapiens, UniProt P53671); conditions: LIMK2; Published KINOMEscan; ref original PKIS2 published data; cited from earlier work
# kinases (KINOMEscan panel) (Homo sapiens, UniProt P53671), sequence (P53671 whole entry): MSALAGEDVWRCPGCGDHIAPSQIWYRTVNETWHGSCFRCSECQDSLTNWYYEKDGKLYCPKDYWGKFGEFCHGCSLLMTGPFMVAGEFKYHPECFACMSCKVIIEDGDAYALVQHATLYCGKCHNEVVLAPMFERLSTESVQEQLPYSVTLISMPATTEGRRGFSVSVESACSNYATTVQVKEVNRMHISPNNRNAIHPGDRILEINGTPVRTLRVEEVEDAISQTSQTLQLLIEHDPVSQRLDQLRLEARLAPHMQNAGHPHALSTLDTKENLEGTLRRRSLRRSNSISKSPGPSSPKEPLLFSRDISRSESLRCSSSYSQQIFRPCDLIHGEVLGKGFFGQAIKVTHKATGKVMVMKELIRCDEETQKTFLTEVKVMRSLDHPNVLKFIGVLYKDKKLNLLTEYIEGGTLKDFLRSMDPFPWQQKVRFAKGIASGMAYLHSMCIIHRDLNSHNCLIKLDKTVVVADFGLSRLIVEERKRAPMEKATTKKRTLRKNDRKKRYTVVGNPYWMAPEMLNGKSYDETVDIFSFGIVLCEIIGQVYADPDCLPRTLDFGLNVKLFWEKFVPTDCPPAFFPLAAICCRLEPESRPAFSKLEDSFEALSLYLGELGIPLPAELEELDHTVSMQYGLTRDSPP
# kinases (KINOMEscan panel) (Homo sapiens, UniProt O75914), sequence (O75914 whole entry): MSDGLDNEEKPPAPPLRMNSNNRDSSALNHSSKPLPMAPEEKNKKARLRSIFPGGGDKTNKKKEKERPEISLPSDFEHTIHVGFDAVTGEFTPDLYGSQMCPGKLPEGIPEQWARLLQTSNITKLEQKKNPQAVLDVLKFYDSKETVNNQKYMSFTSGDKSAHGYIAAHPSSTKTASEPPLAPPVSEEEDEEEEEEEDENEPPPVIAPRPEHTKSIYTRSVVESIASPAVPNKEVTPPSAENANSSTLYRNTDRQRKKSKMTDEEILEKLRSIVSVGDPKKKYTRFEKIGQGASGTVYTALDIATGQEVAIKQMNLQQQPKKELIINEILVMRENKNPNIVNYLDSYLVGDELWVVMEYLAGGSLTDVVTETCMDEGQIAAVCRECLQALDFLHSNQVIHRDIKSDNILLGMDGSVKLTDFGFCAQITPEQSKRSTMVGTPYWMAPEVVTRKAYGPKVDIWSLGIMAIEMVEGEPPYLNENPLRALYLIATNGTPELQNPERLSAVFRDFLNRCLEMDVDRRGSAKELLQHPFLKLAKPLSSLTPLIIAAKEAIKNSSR
compound,measurement,setting,value
Cc1cccc(-c2nc(Nc3ccncc3)c3ccccc3n2)n1 [NK215],KINOMEscan PAK3,[1],0
same,KINOMEscan PLK1,[2],6
same,KINOMEscan AXL,[3],7
same,KINOMEscan RIPK4,[4],0
same,KINOMEscan IRAK4,[5],0
same,KINOMEscan TIE1,[6],20
same,KINOMEscan LCK,[7],9
same,KINOMEscan LIMK2,[8],5
